Values quoted from earlier work as cited in patent publication US20230149510A1, “METHOD FOR ALLEVIATING ARTHRITIS USING EPIDERMAL GROWTH FACTOR” (Lovin BioMed Co., Ltd., priority 2021, published 2023).

How the values were obtained:
OA = conditions: Sun H. et al. (2018); cited from earlier work
[1] = test system: collagen-induced arthritis; conditions: Swanson C. D. et al. (2012); cited from earlier work

SMILES	effect on symptoms in mice with OA (OA)	effect on collagen-induced arthritis [1]
COc1cc2ncnc(Nc3ccc(F)c(Cl)c3)c2cc1OCCCN1CCOCC1 [gefitinib]	can improve symptoms in mice with OA	
C#Cc1cccc(Nc2ncnc3cc(OCCOC)c(OCCOC)cc23)c1 [erlotinib]		can alleviate collagen-induced arthritis
